Counter-ions that a name gives are not always drawn.
What was measured:
intracellular Ca^++ = settings: (2) Ca++ from intracellular store site; (3) Ca++ through receptor-dependent channel; cited from earlier work
[1] = system: ischemic acute renal failure in rats; assay: Effect on the ischemic acute renal failure in rats; type: in vivo, Sprague-Dawley rats; settings: for Plasma urea nitrogen (BUN): p.o., 24 h after reperfusion; for Effect on the increase in BUN (in words): Ex. 48 at 10 mg/kg, Ex. 46 at 1 and 3 mg/kg
Protocol: The left renal artery of male Sprague-Dawley rats, 6 week old, was clamped for 1 hour under anesthesia with sodium pentobarbital (50 mg/kg, i.p.). The compounds or water was orally given 1 hour before the occlusion. The compounds were again given 20 hour after the reperfusion of the blood. Twenty four hour after the reperfusion, the blood was obtained from the abdominal aorta under anesthesia for measurement of plasma urea nitrogen (BUN).

[2] = system: ischemia-reperfusion-induced ventricular arrythmia in rats; assay: Effect on the ischemia-reperfusion-induced ventricular arrhythmia in rats; type: in vivo, Sprague-Dawley rats; settings: p.o.; for Incidence of cardiac arrest (CA), rats affected/rats used / Incidence of ventricular fibrillation (VF), rats affected/rats used / Incidence of ventricular tachycardia (VT), rats affected/rats used: 10 min after reperfusion; for Effect on incidences of VT, VF and CA (in words): Ex. 48 at 1, 3 and 10 mg/kg, Ex. 46 at 0.3, 1, 3 and 10 mg/kg
Protocol: Male Sprague-Dawley rats, 9 to 10 week old, were orally given the compounds or tap water at a volume of 5 ml/kg. After 1 hour, rats were anesthetized with sodium pentobarbital (50 mg/kg, i.p.), and left anterior descending coronary artery was occluded for 5 min. with a silk thread under ventilation. The incidences of ventricular tachycardia (VT), ventricular fibrilation (VF) and cardiac arrest (CA) occurred for 10 min. after reperfusion of the blood were calculated.

[3] = system: ischemic seizure induced by bilateral carotid artery occlusion; assay: Effect on the ischemic seizure induced by bilateral carotid artery occlusion in spontaneously hypertensive rats; type: in vivo; settings: p.o.; for Time toward ischemic seizure: 1 h before occlusion; for Effect on time of the beginning of the ischemic seizure (in words): Ex. 48 at 1, 3 and 10 mg/kg, Ex. 46 at 0.3, 1 and 3 mg/kg
Protocol: Male spontaneously hypertensive rats, 20 to 22 week old, were orally given the compounds or tap water at a volume of 5 ml/kg. After 1 hour, the carotid artery was bilaterally occluded by use of silk thread under anesthesia with sodium pentobarbital (50 mg/kg, i.p.). The length of time until the ischemic seizure such as convulsion and jumping was observed was measured, immediately after the occlusion of carotid artery.

[4] = cited from earlier work
[5] = system: contraction depending on intracellular Ca^++; assay: Intracellular Ca++ antagonism: inhibition of phenylephrine contraction of aorta strip in Ca++-free EGTA solution; type: cell-based, rabbit; settings: Oryctolagus cuniculus, phenylephrine 10^-6 M, Ca++ 0 mM, EGTA 5 mM, read-out: Inhibitory percent (contraction depending on intracellular Ca++)
Protocol: A spiral strip of aorta of a rabbit (2-3 mm width, about 3 cm length) was allowed to equilibrate by hanging under 2 g force in a Krebs-Henseleit solution. The solution was saturated with a mixture gas 97% O2 --3% CO2, which was warmed to 37° C. The strip was moved into another Krebs-Henseleit solution containing Ca^++ OmM and EGTA 5 mM. Five minutes later, phenylephrine (10^-6 M) was added on the solution. The resulting contraction of the strip was made as the index of the contraction depending on intracellular Ca^++.

[6] = system: spontaneously hypertensive rats; assay: Antihypertensive action in spontaneously hypertensive rats (tail-cuff); type: in vivo; settings: 1 h after administration
Protocol: Male 12 to 13 weeks old spontaneously hypertensive rats with about 200 mm Hg of blood pressure were used in groups of 3 individuals. Mean arterial blood pressures of these animals were measured by the tail-cuff method, then the animals were orally given 3-60 mg/kg of each test compound of this invention as 2 ml of its suspension in gum arabic. Blood pressure measurements were made again one hour after administration of each test compound.

[7] = in vivo; cited from earlier work
[8] = system: contraction of the aorta strip caused by serotonin (5--HT); assay: Vasodilating action: inhibition of contraction of rabbit aorta strip caused by serotonin (5-HT); type: cell-based; settings: Oryctolagus cuniculus, compound 10^-5 M, 5-HT 10^-6 M, 15 min pretreatment, read-out: Inhibitory percent against contraction, 5-HT
Protocol: (§1) A spiral strip of aorta of a rabbit (2-3 mm width, about 3 cm length) was allowed to equilibrate by hanging under 2 g force in a Krebs-Henseleit solution. The solution was saturated with a mixture gas of 97% O2 --3% CO2 which was warmed to 37° C. Inhibitory actions of compounds (10^-5 M) of this invention against contraction of the aorta strip caused by KCl (60 mM), norepinephrine (NE) (10^-6 M) or serotonin (5--HT) (10^-6 M), by treating the strip with a compound of this invention 15 minutes before the test, are shown in Table 1 as inhibitory percent.

[9] = system: contraction of the aorta strip caused by norepinephrine (NE); assay: Vasodilating action: inhibition of contraction of rabbit aorta strip caused by norepinephrine (NE); type: cell-based; settings: Oryctolagus cuniculus, compound 10^-5 M, NE 10^-6 M, 15 min pretreatment, read-out: Inhibitory percent against contraction, NE
Protocol: as §1

[10] = system: contraction of the aorta strip caused by KCl; assay: Vasodilating action: inhibition of contraction of rabbit aorta strip caused by KCl; type: cell-based; settings: Oryctolagus cuniculus, compound 10^-5 M, KCl 60 mM, 15 min pretreatment, read-out: Inhibitory percent against contraction, KCl
Protocol: as §1

[11] = 3 mg/kg, control 20.3 ± 0.6 (Ex. 48), 25.1 ± 0.8 (Ex. 46)
[12] = 1 mg/kg, control 139 ± 9 (Ex. 48), 150 ± 6 (Ex. 46)
[13] = 3 mg/kg, control 152 ± 14 (Ex. 48), 150 ± 6 (Ex. 46)

NCCCCCCNS(=O)(=O)c1cccc2c(Cl)cccc12 [Example W-7]
Action on intracellular Ca++ (in words) (intracellular Ca^++): weak in their action

Cc1cccc2c1NC(=O)C(CCCN1CCN(c3ccc(F)cc3)CC1)S2 (stereo not shown) [Example 48, 2-[3-[4-(4-fluorophenyl)-1-piperazinyl]propyl]-5-methyl-2H-1,4-benzothiazin-3(4H)-one]
Plasma urea nitrogen (BUN) [1, 11]: 18.9 ± 0.6 mg/dL | Plasma urea nitrogen (BUN) ([1]; 10 mg/kg, control 22.8 ± 1.0): 16.9 ± 0.7 mg/dL | Effect on the increase in BUN (in words) [1]: inhibited the increase in BUN | Incidence of cardiac arrest (CA), rats affected/rats used ([2]; 1 mg/kg): 3/10 | Incidence of ventricular fibrillation (VF), rats affected/rats used ([2]; 1 mg/kg): 5/10 | Incidence of ventricular tachycardia (VT), rats affected/rats used ([2]; 1 mg/kg): 7/10 | Incidence of cardiac arrest (CA), rats affected/rats used ([2]; 3 mg/kg): 1/9 | Incidence of ventricular fibrillation (VF), rats affected/rats used ([2]; 3 mg/kg): 3/9 | Incidence of ventricular tachycardia (VT), rats affected/rats used ([2]; 3 mg/kg): 4/9 | Incidence of cardiac arrest (CA), rats affected/rats used ([2]; 10 mg/kg): 0/6 | Incidence of ventricular fibrillation (VF), rats affected/rats used ([2]; 10 mg/kg): 1/6 | Incidence of ventricular tachycardia (VT), rats affected/rats used ([2]; 10 mg/kg): 1/6 | Effect on incidences of VT, VF and CA (in words) [2]: inhibited the incidences of VT, VF and CA in a dose-dependent manner | Time toward ischemic seizure [3, 12]: 167 ± 8 min | Time toward ischemic seizure [3, 13]: 214 ± 22 min | Time toward ischemic seizure ([3]; 10 mg/kg, control 132 ± 14): 275 ± 22 min | Effect on time of the beginning of the ischemic seizure (in words) [3]: prolonged the time of the beginning of the ischematic seizure in a dose-dependent manner

CCN(CC)CCCCCCCCOC(=O)c1cc(OC)c(OC)c(OC)c1 [TMB-8]
Action on intracellular Ca++ (in words) (intracellular Ca^++): weak in their action | Antihypertensive action in vivo (in words) [4]: do not display antihypertensive action in vivo | inhibition at 100 µM ([5]; compound 10^-4 M): 58%

O=C1Nc2cc3c(cc2SC1CCCN1CCN(c2ccc(F)cc2)CC1)CCC3 (stereo not shown) [Example 46, 6,7-cyclopenteno-2-[3-[4-(4-fluorophenyl)-1-piperazinyl]propyl]-2H-1,4-benzothiazin-3(4H)-one.hydrochloride]
Plasma urea nitrogen (BUN) ([1]; 1 mg/kg, control 20.4 ± 0.4): 18.0 ± 0.7 mg/dL | Plasma urea nitrogen (BUN) [1, 11]: 19.6 ± 0.8 mg/dL | Effect on the increase in BUN (in words) [1]: inhibited the increase in BUN | Incidence of cardiac arrest (CA), rats affected/rats used ([2]; 0.3 mg/kg): 9/19 | Incidence of ventricular fibrillation (VF), rats affected/rats used ([2]; 0.3 mg/kg): 9/19 | Incidence of ventricular tachycardia (VT), rats affected/rats used ([2]; 0.3 mg/kg): 12/19 | Incidence of cardiac arrest (CA), rats affected/rats used ([2]; 1 mg/kg): 0/12 | Incidence of ventricular fibrillation (VF), rats affected/rats used ([2]; 1 mg/kg): 5/12 | Incidence of ventricular tachycardia (VT), rats affected/rats used ([2]; 1 mg/kg): 7/12 | Incidence of cardiac arrest (CA), rats affected/rats used ([2]; 3 mg/kg): 0/12 | Incidence of ventricular fibrillation (VF), rats affected/rats used ([2]; 3 mg/kg): 2/12 | Incidence of ventricular tachycardia (VT), rats affected/rats used ([2]; 3 mg/kg): 5/12 | Incidence of cardiac arrest (CA), rats affected/rats used ([2]; 10 mg/kg): 0/4 | Incidence of ventricular fibrillation (VF), rats affected/rats used ([2]; 10 mg/kg): 1/4 | Incidence of ventricular tachycardia (VT), rats affected/rats used ([2]; 10 mg/kg): 1/4 | Effect on incidences of VT, VF and CA (in words) [2]: inhibited the incidences of VT, VF and CA in a dose-dependent manner | Antihypertensive effect (difference of blood pressure before and after medication) ([6]; 3 mg/Kg oral): 33 ΔmmHg | Time toward ischemic seizure ([3]; 0.1 mg/kg, control 153 ± 8): 167 ± 13 min | Time toward ischemic seizure ([3]; 0.3 mg/kg, control 143 ± 7): 190 ± 11 min | Time toward ischemic seizure [3, 12]: 217 ± 11 min | Time toward ischemic seizure [3, 13]: 279 ± 18 min | Effect on time of the beginning of the ischemic seizure (in words) [3]: prolonged the time of the beginning of the ischematic seizure in a dose-dependent manner

COC(=O)C1=C(C)NC(C)=C(C(=O)OC)C1c1ccccc1[N+](=O)[O-] [nifedipine]
Action on intracellular Ca++ (in words) (intracellular Ca^++): hardly acts on (2) and (3)

CN1CCN(CCCN2c3ccccc3Sc3ccc(C(F)(F)F)cc32)CC1 [trifluoperazine]
Action on intracellular Ca++ (in words) (intracellular Ca^++): showing antagonism against intracellular Ca^++ | Side effects of known drugs (in words) [7]: side effects e.g. on the central nervous system

COc1ccccc1N1CCN(CCCC2Sc3cc(C)cc(C)c3NC2=O)CC1 (stereo not shown) [Example 22]
inhibition at 10 µM [8]: 15% | inhibition at 10 µM [9]: 100% | Antihypertensive effect (difference of blood pressure before and after medication) ([6]; 30 mg/Kg oral): 39 ΔmmHg | inhibition at 10 µM [10]: 62% | inhibition at 1 µM ([5]; compound 10^-6 M): 100%

COc1cc2nc(N3CCN(C(=O)c4ccco4)CC3)nc(N)c2cc1OC [prazosin]
Side effects of known drugs (in words) [7]: orthostatic hypotension often observed
